Here are results for 34 compounds from the supplement of paper PMC5412046.

In general, viability refers to a read-out of living cells in per cent, often relative to untreated cells.

Structures can show the parent of a compound that is named as a salt.

The test system of experiment [1] is SB.msgc-1. Briefly: viability at highest tested concentration (MAXR) relative to DMSO; higher = less cytotoxic. Conditions: SB.msgc-1 (sporadic gastric cancer). The procedure, abridged:
(§1)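 After 48 h of compound exposure, viability of hereditary or sporadic patient-derived gastric cancer cells was measured by CellTiter-Glo luminescence. Compounds were added in DMSO at 11 threefold-diluted concentrations to 500 cells per 1536 well. Results are viability normalised to DMSO, either at the highest concentration or as trapezoidal area under the curve.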

The subject of experiment [2] is SB.mhdgc-1. The description is as above. Conditions: SB.mhdgc-1 (hereditary c.1380delA CDH1 gastric cancer). The procedure, abridged:
as §1

Experiment [3] concerns SB.msgc-1. Kind of experiment: area under the dose-response curve of % viability (trapezoidal, 11 doses) (% viability x log10 concentration); higher = less cytotoxic. Conditions: SB.msgc-1 (sporadic gastric cancer). The procedure, abridged: as §1
Experiment [4] concerns SB.mhdgc-1. Described as above. The conditions noted are these: SB.mhdgc-1 (hereditary c.1380delA CDH1 gastric cancer). The method, boiled down: as §1

With `CSCC[C@@H](NC(=O)[C@@H](Cc1ccccc1)NC(=O)CNC(=O)CNC(=O)[C@@H](N)Cc1ccc(O)cc1)C(=O)O` [Metenkephalin] (top concentration 46.0829 µM), the viability was 120% in experiment [1] and 140% in experiment [2]. In addition, the figures for the “area under the dose-response curve” value in experiment [3] and in experiment [4] were 558 and 556, respectively.
With `CN(C)C(=N)NC(=N)N` [Metformin HCl] (top concentration 46.0829 µM), the viability in experiment [1] came to 79.9%; in experiment [2] it was 72.1%. Besides, the “area under the dose-response curve” value in experiment [3] turned out to be 484; in experiment [4], 502.
Take `CN(C)[C@H]\1[C@@H]2[C@@H](O)[C@@H]\3C(=C)C4=C(C(=CC=C4)O)C(=O)C3=C(\O)[C@@]2(O)C(=O)\C(=C1O)C(N)=O` [Methacycline hydrochloride] (top concentration 46.0829 µM): the results for the viability in experiment [1] and in experiment [2] were 43.3% and 126%, respectively. The “area under the dose-response curve” value amounted to 501 in experiment [3] and 604 in experiment [4].
With `COc1ccccc1OCC(O)COC(N)=O` (stereo unspecified) [Methocarbamol] (top concentration 46.0829 µM), the viability was 104% in experiment [1] and 161% in experiment [2]. For the same compound, the “area under the dose-response curve” value in experiment [3] came out at 498; in experiment [4] it was 533.
In the case of `CN(Cc1cnc2nc(N)nc(N)c2n1)c1ccc(C(=O)N[C@@H](CCC(=O)O)C(=O)O)cc1` [Methotrexate] (top concentration 46.0829 µM), the viability in experiment [1] turned out to be 37.8%; in experiment [2], 61.7%. Further, the “area under the dose-response curve” value in experiment [3] amounted to 348; in experiment [4], 440.
Taken in the same sequence, the figures for `COC1=C2OC(=O)\C=C/C2=CC3=C1OC=C3` [Methoxsalen] (top concentration 46.0829 µM) were 105%, 101%, 510 and 476.
As for `C[N+]1(C)[C@@H]2C[C@@H](OC(=O)[C@H](CO)c3ccccc3)C[C@H]1[C@@H]1O[C@@H]12.[Br-]` [Methscopolamine bromide] (top concentration 46.0829 µM), the values for the viability in experiment [1] and in experiment [2] were 133% and 98.7%, respectively. Further, the “area under the dose-response curve” value in experiment [3] is 578; in experiment [4] it was 496.
Taken in the same sequence, the figures for `C[C@](N)(Cc1ccc(O)c(O)c1)C(=O)O` [Methyldopa] (top concentration 46.0829 µM) were 105%, 63.7%, 519 and 469.
Regarding `CN(C)c1ccc2nc3ccc(N(C)C)cc3[s+]c2c1` [Methylene blue] (top concentration 46.0829 µM), the values for the viability in experiment [1] and in experiment [2] were 9.08% and 4.3%, respectively. Also, the “area under the dose-response curve” value came out at 402 in experiment [3] and 384 in experiment [4].
The matching figures for `C[C@H]1C[C@H]2[C@@H]3CC[C@](O)(C(=O)CO)[C@@]3(C)C[C@H](O)[C@@H]2[C@@]\4(C)/C=C\C(=O)\C=C14` [Methylprednisolone] (top concentration 46.0829 µM): 95%, 105%, 495 and 462.
The matching figures for `CN(C)C1=CC=C(C=C1)C(C2=CC=C(C=C2)N(C)C)=C/3\C=C/C(/C=C3)=[N+](C)C` [Methylrosaniline chloride] (top concentration 46.0829 µM): -1.17%, 0.7%, 379 and 356.
The matching figures for `C[C@]12CCC(=O)C=C1CC[C@@H]1[C@@H]2CC[C@@]2(C)[C@H]1CC[C@]2(C)O` [Methyltestosterone] (top concentration 92.1659 µM): 60.4%, 73.4%, 515 and 523.
With `Cc1ccccc1N1C(=O)c2cc([S+](N)(=O)[O-])c(Cl)cc2NC1C` (stereo unspecified) [Metolazone] (top concentration 46.0829 µM), the viability in experiment [1] is 101%; in experiment [2], 97%. Further, the “area under the dose-response curve” value in experiment [3] was 529; in experiment [4], 571.
As for `Cc1ncc([N+](=O)[O-])n1CCO` [Metronidazole] (top concentration 46.0829 µM), the viability in experiment [1] came to 115%; in experiment [2] it was 98.6%. In addition, the “area under the dose-response curve” value amounted to 522 in experiment [3] and 483 in experiment [4].
Taken in the same sequence, the figures for `CN1CCN2c3ccccc3Cc3ccccc3C2C1` (stereo unspecified) [Mianserin hydrochloride] (top concentration 46.0829 µM) were 94%, 80.8%, 536 and 508.
Consider `Clc1ccc(COC(Cn2ccnc2)c2ccc(Cl)cc2Cl)c(Cl)c1` (stereo unspecified) [Miconazole nitrate] (top concentration 46.0829 µM), for which the viability in experiment [1] was 46.2%; in experiment [2] it was 49.5%. The “area under the dose-response curve” value in experiment [3] is 494; in experiment [4], 495.
For the compound `CO[C@@H]1[C@H](N(C)C(=O)c2ccccc2)C[C@H]2O[C@]1(C)n1c3ccccc3c3c4c(c5c6ccccc6n2c5c31)C(=O)NC4` [Midostaurin] (top concentration 46.0829 µM), the viability in experiment [1] is 56.2%; in experiment [2], 33.4%. Besides, the “area under the dose-response curve” value was found to be 490 in experiment [3] and 389 in experiment [4].
The matching figures for `CC#C[C@]1(O)CC[C@H]2[C@@H]/3CCC/4=C/C(=O)CCC4=C3[C@H](C[C@]12C)C5=CC=C(C=C5)N(C)C` [Mifepristone] (top concentration 46.0829 µM): 51.8%, 26%, 364 and 306.
For the compound `OCCN1C[C@H](O)[C@@H](O)[C@H](O)[C@H]1CO` [Miglitol] (top concentration 46.0829 µM), the viability is 123% in experiment [1] and 106% in experiment [2]. The entries for the “area under the dose-response curve” value in experiment [3] and in experiment [4] were 560 and 529, respectively.
Taken in the same sequence, the figures for `CNC(=O)c1nn(C)c2c1C(C)(C)Cc1cnc(Nc3ccc(N4CCN(C)CC4)cc3)nc1-2` [Milciclib] (top concentration 46.0829 µM) were 59.5%, 61.8%, 445 and 454.
Taken in the same sequence, the figures for `C\C1=C(\C=C(\C#N)C(=O)N1)C2=CC=NC=C2` [Milrinone] (top concentration 46.0829 µM) were 44.2%, 11.8%, 475 and 544.
Taken in the same sequence, the figures for `CN(C)c1ccc(O)c2c1C[C@H]1C[C@H]3[C@H](N(C)C)C(O)=C(C(N)=O)C(=O)[C@@]3(O)C(O)=C1C2=O` [Minocycline] (top concentration 46.0829 µM) were 26.2%, 27.4%, 431 and 450.
In the case of `Nc1cc(N2CCCCC2)nc(N)[n+]1[O-]` [Minoxidil] (top concentration 46.0829 µM), the viability in experiment [1] was 94.7%; in experiment [2], 71.2%. The “area under the dose-response curve” value is 579 in experiment [3] and 507 in experiment [4].
In the case of `CN1CCN2c3ncccc3Cc3ccccc3C2C1` (stereo unspecified) [Mirtazapine] (top concentration 46.0829 µM), the viability in experiment [1] was found to be 99.7%; in experiment [2], 150%. The “area under the dose-response curve” value is 545 in experiment [3] and 548 in experiment [4].
`O=C([O-])[C@H](CC(=O)N1C[C@H]2CCCC[C@H]2C1)Cc1ccccc1` [Mitiglinide calcium hydrate] (top concentration 46.0829 µM): the viability is 109% in experiment [1] and 114% in experiment [2]. Also, the figures for the “area under the dose-response curve” value in experiment [3] and in experiment [4] were 549 and 547, respectively.
For `CO[C@@]12[C@H](COC(N)=O)C/3=C(N1C[C@@H]4N[C@H]24)/C(=O)/C(=C(N)\C3=O)C` [Mitomycin] (top concentration 46.0829 µM), the figures for the viability in experiment [1] and in experiment [2] were 42.1% and 12.4%, respectively. The results for the “area under the dose-response curve” value in experiment [3] and in experiment [4] were 362 and 199, respectively.
Taken in the same sequence, the figures for `Clc1ccc(C(c2ccccc2Cl)C(Cl)Cl)cc1` (stereo unspecified) [Mitotane] (top concentration 46.0829 µM) were 59.8%, 51%, 497 and 478.
Taken in the same sequence, the figures for `O=C1c2c(O)ccc(O)c2C(=O)c2c(NCCNCCO)ccc(NCCNCCO)c21` [Mitoxantrone] (top concentration 46.0829 µM) were 20.4%, 2.34%, 402 and 263.
Regarding `CN(c1nccc(=O)[nH]1)C1CCN(c2nc3ccccc3n2Cc2ccc(F)cc2)CC1` [Mizolastine] (top concentration 46.0829 µM), the viability in experiment [1] came out at 31.2%; in experiment [2], 64.6%. In addition, the results for the “area under the dose-response curve” value in experiment [3] and in experiment [4] were 467 and 519, respectively.
For `NC(=O)c1ncn([C@@H]2O[C@H](CO)[C@@H](O)[C@H]2O)c1O` [Mizoribine] (top concentration 46.0829 µM), the results for the viability in experiment [1] and in experiment [2] were 114% and 110%, respectively. In addition, the “area under the dose-response curve” value in experiment [3] is 559; in experiment [4] it was 599.
Taken in the same sequence, the figures for `Nc1ccccc1NC(=O)c1ccc(CNc2nccc(-c3cccnc3)n2)cc1` [Mocetinostat] (top concentration 46.0829 µM) were 16.8%, 69%, 355 and 447.
For the compound `C[C@@H]1C[C@H]2[C@@H]3CC\C4=C\C(=O)\C=C/[C@]4(C)[C@@]3(Cl)[C@@H](O)C[C@]2(C)[C@@]1(OC(=O)C5=CC=CO5)C(=O)CCl` [Mometasone furoate] (top concentration 46.0829 µM), the values for the viability in experiment [1] and in experiment [2] were 20.5% and 4.2%, respectively. For the same compound, the “area under the dose-response curve” value came to 501 in experiment [3] and 398 in experiment [4].
On to `CCOC(=O)C/1=C(C)/NC(=S)NC1C2=CC=CC(=C2)O` (stereo unspecified) [Monastrol] (top concentration 46.0829 µM), for which the viability in experiment [1] was 48.5%; in experiment [2] it was 86.2%. The “area under the dose-response curve” value is 347 in experiment [3] and 398 in experiment [4].
As to `O=C(CCCN1CCN(c2ccc(F)cc2)CC1)NC1c2ccccc2CSc2ccccc21` (stereo unspecified) [Monatepil] (top concentration 46.0829 µM), the viability in experiment [1] came to 49.1%; in experiment [2], 68.5%. In addition, the “area under the dose-response curve” value in experiment [3] came out at 486; in experiment [4], 597.
